Laboratory results as given in patent publication US20110124692A1, “CRYSTALLINE FORMS OF THIAZOLIDINEDIONE COMPOUND AND ITS MANUFACTURING METHOD” (DAIICHI SANKYO COMPANY, LIMITED, priority 2008, published 2011).
Where a name gives a salt, the structure may show the parent alone. Read-outs that look alike come from different tables or passages of the source.

Key:
[1] = Solubility in dilute hydrochloric acid (Test Example 3); format: physicochemical; conditions: for The concentration (mg/g) of 5-(4-{[6-(4-amino-3,5-dimethylphenoxy)-1-methyl-1-H-benzimidazol-2-yl]methoxy}benzyl)-1,3-thiazolidine-2,4-dione in dilute hydrochloric acid: dilute hydrochloric acid 9.6 mg/g (pH about 0.7), 25° C., 500 mg in 5 mL, sampled after 6 minutes; for Concentration in dilute hydrochloric acid compared with the other crystalline forms: comparison of Table 7
Experimental: The concentration was measured under the test conditions below.
The concentration is calculated from the following formula.

[2] = in vivo; cited from earlier work
[3] = target: T1, peroxisome proliferator-activated receptor (PPAR) γ (Homo sapiens, UniProt P37231); conditions: as disclosed in Patent Documents 1-5; cited from earlier work
T1 sequence (P37231 1-505): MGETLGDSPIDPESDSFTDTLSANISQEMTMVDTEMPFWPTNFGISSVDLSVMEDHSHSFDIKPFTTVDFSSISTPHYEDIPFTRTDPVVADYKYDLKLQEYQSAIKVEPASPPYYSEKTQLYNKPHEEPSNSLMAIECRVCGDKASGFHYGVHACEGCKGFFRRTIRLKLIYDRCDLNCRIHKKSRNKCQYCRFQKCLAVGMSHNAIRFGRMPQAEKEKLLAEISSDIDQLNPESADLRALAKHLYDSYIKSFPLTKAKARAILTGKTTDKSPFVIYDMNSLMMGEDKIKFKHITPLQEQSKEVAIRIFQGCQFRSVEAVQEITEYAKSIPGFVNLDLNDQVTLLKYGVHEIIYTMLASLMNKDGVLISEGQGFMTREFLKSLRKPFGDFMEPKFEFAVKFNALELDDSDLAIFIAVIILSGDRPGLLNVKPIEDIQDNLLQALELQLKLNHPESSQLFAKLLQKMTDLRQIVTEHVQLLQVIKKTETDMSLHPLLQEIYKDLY

[4] = tested on: human stomach cancer cells, human breast cancer cells, small cell lung cancer, pancreas cancer cells, prostate cancer cells, kidney cancer cells …; conditions: medulloblastoma, sarcoma cells, multiple myeloma; cited from earlier work
cancer cells [5] = conditions: in combination with an epidermal growth factor receptor (EGFR) inhibitor; cited from earlier work
human leukemia cells = conditions: cited from earlier work
[6] = tested on: human non-small-cell lung cancer; conditions: cited from earlier work
cancer cells [7] = conditions: in combination with a VEGFR inhibitor or a Raf kinase inhibitor; cited from earlier work
human kidney cancer = conditions: cited from earlier work
[8] = tested on: human colon cancer cell lines; conditions: against human colon cancer cell lines; cited from earlier work

Cc1cc(Oc2ccc3nc(COc4ccc(CC5SC(=O)NC5=O)cc4)n(C)c3c2)cc(C)c1N (stereo not shown) [5-(4-{[6-(4-amino-3,5-dimethylphenoxy)-1-methyl-1-H-benzimidazol-2-yl]methoxy}benzyl)-1,3-thiazolidine-2,4-dione monohydrate]
The concentration (mg/g) of 5-(4-{[6-(4-amino-3,5-dimethylphenoxy)-1-methyl-1-H-benzimidazol-2-yl]methoxy}benzyl)-1,3-thiazolidine-2,4-dione in dilute hydrochloric acid ([1]; monohydrate): 0.579 mg/g
Concentration in dilute hydrochloric acid compared with the other crystalline forms ([1]; listed as free-form crystalline form, monohydrate): higher concentration than all the dihydrochloride monohydrate crystalline forms

Cc1cc(Oc2ccc3nc(COc4ccc(CC5SC(=O)NC5=O)cc4)n(C)c3c2)cc(C)c1N (stereo not shown) [Compound (I), 5-(4-{[6-(4-amino-3,5-dimethylphenoxy)-1-methyl-1-H-benzimidazol-2-yl]methoxy}benzyl)-1,3-thiazolidine-2,4-dione]
Activity to ameliorate insulin resistance and to reduce blood sugar [2]: significant activity to ameliorate insulin resistance and to reduce blood sugar
Ability to activate PPAR γ [3]: significant ability to activate

Cc1cc(Oc2ccc3nc(COc4ccc(CC5SC(=O)NC5=O)cc4)n(C)c3c2)cc(C)c1N (stereo not shown) [Crystalline form A manufactured according to Example 4] [5-(4-{[6-(4-amino-3,5-dimethylphenoxy)-1-methyl-1-H-benzimidazol-2-yl]methoxy}benzyl)-1,3-thiazolidine-2,4-dione dihydrochloride monohydrate]
The concentration (mg/g) of 5-(4-{[6-(4-amino-3,5-dimethylphenoxy)-1-methyl-1-H-benzimidazol-2-yl]methoxy}benzyl)-1,3-thiazolidine-2,4-dione in dilute hydrochloric acid ([1]; dihydrochloride monohydrate): 0.325 mg/g
Concentration in dilute hydrochloric acid compared with the other crystalline forms ([1]; dihydrochloride monohydrate): highest concentration among the dihydrochloride monohydrate crystalline forms

Cc1cc(Oc2ccc3nc(COc4ccc(CC5SC(=O)NC5=O)cc4)n(C)c3c2)cc(C)c1N (stereo not shown) [Crystalline form manufactured according to Example (2-1)] [5-(4-{[6-(4-amino-3,5-dimethylphenoxy)-1-methyl-1-H-benzimidazol-2-yl]methoxy}benzyl)-1,3-thiazolidine-2,4-dione dihydrochloride monohydrate]
The concentration (mg/g) of 5-(4-{[6-(4-amino-3,5-dimethylphenoxy)-1-methyl-1-H-benzimidazol-2-yl]methoxy}benzyl)-1,3-thiazolidine-2,4-dione in dilute hydrochloric acid ([1]; dihydrochloride monohydrate): 0.276 mg/g

Cc1cc(Oc2ccc3nc(COc4ccc(CC5SC(=O)NC5=O)cc4)n(C)c3c2)cc(C)c1N (stereo not shown) [dihydrochloride of Compound (I), 5-(4-{[6-(4-amino-3,5-dimethylphenoxy)-1-methyl-1-H-benzimidazol-2-yl]methoxy}benzyl)-1,3-thiazolidine-2,4-dione dihydrochloride]
Activity to inhibit the growth of cancer cells [4]: significant activity to inhibit the growth
Activity to inhibit the growth of cancer cells in combination (cancer cells [5]): synergistic activity to inhibit the growth of cancer cells
Growth inhibition of human leukemia cells (human leukemia cells): significantly inhibits the growth-inhibiting activity
Antitumor activity ([6]; alone): has antitumor activity
Antitumor activity in combination ([6]; in combination with an EGFR inhibitor): enhanced antitumor activity
Activity to inhibit the growth of cancer cells in combination (cancer cells [7]): synergistic activity to inhibit the growth of cancer cells
Antitumor activity (human kidney cancer; alone): has antitumor activity
Antitumor activity in combination (human kidney cancer; in combination with a VEGFR inhibitor or a Raf kinase inhibitor): enhanced antitumor activity
Antitumor activity in vivo [8]: significant antitumor activity in vivo
